ChEMBL document CHEMBL3137667, “[Drug-induced liver injury; fourteenth updated edition of the bibliographic database of liver injuries and related drugs]” (Gastroenterol Clin Biol, 2004)

Legend:
[1] = human
[2] = Highest frequency of acute liver toxicity observed during clinical trials, expressed as a percentage. [column '% AIGUE' in source]; conditions: human
[3] = human; remark: listed apart in the source
[4] = human; remark: listed apart in the source
[5] = human; remark: listed apart in the source
[6] = human; remark: listed apart in the source
[7] = human, serum
[8] = human; remark: listed apart in the source
[9] = Proposed mechanism(s) of liver damage. [column 'MEC' in source]; conditions: human
[10] = Highest frequency of moderate liver toxicity observed during clinical trials, expressed as a percentage. [column '% BIOL' in source]; conditions: human
[11] = human; remark: listed apart in the source
[12] = Times to onset, minimal and maximal, observed in the indexed observations. [column 'DELAI' in source]; conditions: human
[13] = human; remark: listed apart in the source
[14] = human, serum, 4383 h
[15] = human; remark: listed apart in the source
[16] = human, serum; remark: listed apart in the source
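Throughout, for Hepatotoxicity (association with vascular disease): count of indexed literature references reporting vascular liver injury in humans, e.g. peliosis hepatitis, hepatic veno-occlusive disease or Budd-Chiari syndrome.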
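Throughout, for Hepatotoxicity (benign tumour): value is a count of indexed literature references citing a benign tumour confirmed by histopathology.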
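Throughout, for Hepatotoxicity (choleostasis): human cholestatic liver injury, shown by histopathology or by peak ALT or AST elevation over alkaline phosphatase ratio below 2, value counts indexed literature reports.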
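Throughout, for Hepatotoxicity (chronic liver disease): chronic liver injury confirmed by histopathology or persistently raised serum aminotransferase activity beyond 6 months, value given as the count of indexed literature references.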
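Throughout, for Hepatotoxicity (cirrhosis): value is a count of indexed literature references reporting cirrhosis confirmed by histopathology.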
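Throughout, for Hepatotoxicity (cytolytic): human cytolytic liver injury, shown by histopathology or by a ratio above 5 of peak ALT or AST elevation to alkaline phosphatase elevation, value counts indexed references.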
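Throughout, for Hepatotoxicity (granulomatous hepatitis): value is a count of indexed literature references reporting granulomatous liver disease confirmed by histopathology.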
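Throughout, for Hepatotoxicity (malignant tumour): malignant tumour confirmed by histopathology, value gives the count of indexed literature references reporting it.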
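Throughout, for Hepatotoxicity (severe hepatitis): human clinical data: severe hepatitis, meaning potentially life-threatening liver failure or clinically observed cases, the value counts how many indexed literature references report it.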
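Throughout, for Hepatotoxicity (steatosis): steatosis confirmed by histopathology, value is the count of indexed references.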

| Compound | Hepatotoxicity (severe hepatitis) [1] | Hepatotoxicity (acute) [2] | Hepatotoxicity (benign tumour) [3] | Hepatotoxicity (cytolytic) [4] | Hepatotoxicity (steatosis) [5] | Hepatotoxicity (malignant tumour) [6] | Hepatotoxicity (moderate) [7] | Hepatotoxicity (choleostasis) [8] | Hepatotoxicity (mechanism) [9] | Hepatotoxicity (moderate) [10] | Hepatotoxicity (cirrhosis) [11] | Hepatotoxicity (time to onset) [12] | Hepatotoxicity (granulomatous hepatitis) [13] | Hepatotoxicity (chronic liver disease) [14] | Hepatotoxicity (association with vascular disease) [15] | Hepatotoxicity (acute) [16] | other results |
| --- | --- | --- | --- | --- | --- | --- | --- | --- | --- | --- | --- | --- | --- | --- | --- | --- | --- |
| Cc1ccc(O)c([C@H](CCN(C(C)C)C(C)C)c2ccccc2)c1 [TOLTERODINE] | 0 | 0% | 0 | 1 | 0 | 0 | 0 | 1 | Allergic | 0% | 0 | 18 days | 0 | 0 | 0 | 1 |  |
| CCC(COC(=O)c1cc(OC)c(OC)c(OC)c1)(c1ccccc1)N(C)C (centres undefined) [TRIMEBUTINE] | 0 | 0% | 0 | 1 | 0 | 0 | 0 | 0 | Allergic | 0% | 0 | 2 weeks | 0 | 0 | 0 | 1 |  |
| NCC1(CC(=O)O)CCCCC1 [GABAPENTIN] | 0 | 2.4% | 0 | 1 | 1 | 0 | 2 | 3 | Allergic | 2.4% | 0 | 9 days - 4 months | 0 | 0 | 0 | 5 |  |
| CN(C)[C@@H]1C(O)=C(C(N)=O)C(=O)[C@@]2(O)C(O)=C3C(=O)c4c(O)cccc4[C@@](C)(O)[C@H]3[C@H](O)[C@@H]12 [OXYTETRACYCLINE] | 1 | 0% | 0 | 0 | 4 | 0 | 1 | 2 | Dose-dependant | 60% | 0 | 5 days - 3 weeks | 0 | 0 | 0 | 2 |  |
| COc1cnc(NS(=O)(=O)c2ccc(N)cc2)nc1 | 0 | 0% | 0 | 0 | 0 | 0 | 0 | 1 | Allergic | 0% | 0 | 10 days | 0 | 0 | 0 | 2 |  |
| CC1=C(C(=O)O)N2C(=O)[C@@H](NC(=O)[C@H](N)c3ccccc3)[C@H]2SC1 [CEPHALEXIN ANHYDROUS] | 2 | 0% | 0 | 3 | 0 | 0 | 4 | 4 | Allergic | 4.8% | 0 | 1 week - 9 days | 1 | 0 | 0 | 6 |  |
| NC(=O)c1ncn([C@@H]2O[C@H](CO)[C@@H](O)[C@H]2O)n1 [RIBAVIRIN] | 1 | 0% | 0 | 1 | 1 | 0 | 3 | 1 | Mitochondrial toxicity | 33% | 0 | 11 weeks - 6 months | 0 | 0 | 0 | 2 |  |
| CNCCCC12CCC(c3ccccc31)c1ccccc12 [MAPROTILINE] |  |  | 0 |  | 0 | 0 | 5 |  |  |  | 0 | 2 days - 4 years |  | 0 | 0 | 8 | Hepatotoxicity (severe hepatitis) ([1]; Liver): 0; Hepatotoxicity (acute) ([2]; Liver): 0%; Hepatotoxicity (cytolytic) ([4]; Liver): 7; Hepatotoxicity (choleostasis) ([8]; Liver): 4; Hepatotoxicity (mechanism) ([9]; Liver): Dose-dependant; Hepatotoxicity (moderate) ([10]; Liver): 25%; Hepatotoxicity (granulomatous hepatitis) ([13]; Liver): 0 |
| NC(=O)NC(=O)Cc1ccccc1 [PHENACEMIDE] | 8 | 3% | 0 | 8 | 0 | 0 | 1 | 0 | Allergic | 0% | 0 | 1 month - 3 months | 0 | 0 | 0 | 13 |  |
| O=c1n(CCCN2CCN(c3cccc(Cl)c3)CC2)nc2ccccn12 [TRAZODONE] | 1 | 0% | 0 | 5 | 0 | 0 | 0 | 3 | Allergic | 0% | 0 | 5 days - 18 months | 0 | 1 | 0 | 8 |  |
| CNC=O | 2 | 0% | 0 | 1 | 0 | 0 | 13 | 0 | Dose-dependant | 75% | 0 | 3 days - 1 week | 0 | 0 | 0 | 4 |  |
| CC12CCC(CC1=O)C2(C)C (centres undefined) [CAMPHOR] | 0 | 0% | 0 | 1 | 0 | 0 | 0 | 0 | Dose-dependant | 0% | 0 | 3 days | 0 | 0 | 0 | 1 |  |
| CC1CCc2cc(F)cc3c(=O)c(C(=O)O)cn1c23 (centres undefined) [FLUMEQUINE] | 0 | 0% | 0 | 0 | 0 | 0 | 0 | 0 | Allergic | 0% | 0 | 24 days | 1 | 0 | 0 | 0 |  |
| Cc1cc(CC(=O)O)n(C)c1C(=O)c1ccc(Cl)cc1 [ZOMEPIRAC] | 0 | 0% | 0 | 0 | 0 | 0 | 2 | 0 | Allergic | 1.7% | 0 | 2 weeks | 0 | 0 | 0 | 0 |  |
